Results as given in US6262064A, “Octahydrobenzo[f]quinoline-based receptor agonists and antagonists” (priority 1999, dated 2001).
Like-named read-outs stand apart in the source and are kept apart here.

Legend:
D2 dopamine receptor = molecular target: T1, D2 dopamine receptor (Rattus norvegicus, UniProt P61169); assay: Dopamine D2 binding assay ([3H]Sulpiride); details: for dopamine receptor binding affinity / selectivity for the D2 over the D1 dopamine receptor: in words
T1 construct: rat striatal membranes; from tissue; host or cells: rat striatum membranes
T1 sequence (P61169 whole entry): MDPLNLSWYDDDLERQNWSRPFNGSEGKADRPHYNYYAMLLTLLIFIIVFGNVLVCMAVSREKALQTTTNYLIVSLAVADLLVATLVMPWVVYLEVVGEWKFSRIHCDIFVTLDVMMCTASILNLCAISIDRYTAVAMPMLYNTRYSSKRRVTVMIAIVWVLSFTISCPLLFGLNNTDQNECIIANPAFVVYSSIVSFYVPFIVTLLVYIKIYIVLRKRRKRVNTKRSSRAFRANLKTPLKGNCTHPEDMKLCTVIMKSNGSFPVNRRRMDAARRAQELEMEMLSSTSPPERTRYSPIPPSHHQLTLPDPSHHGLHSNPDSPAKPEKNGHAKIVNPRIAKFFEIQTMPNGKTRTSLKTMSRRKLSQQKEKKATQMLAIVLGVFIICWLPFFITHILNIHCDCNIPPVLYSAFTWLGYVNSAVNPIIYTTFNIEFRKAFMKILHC
Experimental: The final ligand concentration was 0.5 nM.

[1] = molecular target: alpha2-adrenergic receptor; assay: Alpha2-adrenergic (non-selective) binding assay ([3H]RX 781094); set-up: species or system rat; details: for Ki: Table III, rat cortical membranes, read-out: α2 receptor binding affinity Ki; for α2 receptor binding affinity: in words
[2] = system: non-habituated male Swiss-Webster mice; assay: Locomotor dose-effect test; format: in vivo
Experimental: Compounds of this invention were tested to evaluate any depressant effect upon locomotor activity on non-habituated and cocaine-influenced mice. Locomotor activity was measured in photocell cages. A panel of infrared beams was located in the horizontal direction along all 4 sides of each activity cage. Horizontal photocell beam interruptions were recorded by a computer in 10 minute intervals.
Non-habituated male Swiss-Webster served as subjects in this experiment. The mice were injected via the intraperitoneal (IP) route with a methycellulose vehicle or a test compound, comprising trans-9 or cis-9, and placed singly in cages for 20 minutes. After this 20 minute period, mice were injected with saline IP, placed in individual photocell cages and testing for effects upon locomotor activity was begun. Eight mice were tested at each dose level. Experimental sessions were 60 minutes in duration with horizontal locomotor activity recorded in 10 minute intervals. Within each 10 minute interval, the data from all subjects are averaged.
The results of these tests were provided in FIGS. 1a, 1b, 2a and 2b, as well as in Table XI. […] Data were analyzed by a one-way ANOVA computed across doses using a long10 transformation of the horizontal activity counts. Comparisons between vehicle and each dose of the compounds tested were made by a priori contrasts. Doses of the compounds tested, which produced a statistically significant (p<0.05) decrease in locomotor activity relative to vehicle control, are denoted with an asterisk. […] The horizontal activity counts were regressed against the log10 dose of the test compound.

[3] = system: male Sprague-Dawley albino rats; assay: Stereotypy evaluation for dopaminergic activity; format: in vivo; details: IP
Experimental: Young, adult, male Sprague-Dawley (Charles River) albino rats (200-250 g) served as subjects in this experiment. The rats were injected IP with each dose of (±)-trans-9 or (±)-cis-9. Six rats were tested at each dose. Experimental sessions were 60 minutes in duration. The tests were performed and rated in accordance with the method described in Campbell et al., Psychopharmacology, 88:158 (1986). Each rat was rated with a score of 0 to 3, where 0 represents no sterotypy.

D4 (rat) receptor = molecular target: T2, D4 (rat) receptor (Rattus norvegicus, UniProt P30729); assay: D2:D3:D4 competition binding assay, D4 ([3H]-spiperone); details: in words, Example 26
T2 construct: expressed in transfected cells
T2 sequence (P30729 1-387): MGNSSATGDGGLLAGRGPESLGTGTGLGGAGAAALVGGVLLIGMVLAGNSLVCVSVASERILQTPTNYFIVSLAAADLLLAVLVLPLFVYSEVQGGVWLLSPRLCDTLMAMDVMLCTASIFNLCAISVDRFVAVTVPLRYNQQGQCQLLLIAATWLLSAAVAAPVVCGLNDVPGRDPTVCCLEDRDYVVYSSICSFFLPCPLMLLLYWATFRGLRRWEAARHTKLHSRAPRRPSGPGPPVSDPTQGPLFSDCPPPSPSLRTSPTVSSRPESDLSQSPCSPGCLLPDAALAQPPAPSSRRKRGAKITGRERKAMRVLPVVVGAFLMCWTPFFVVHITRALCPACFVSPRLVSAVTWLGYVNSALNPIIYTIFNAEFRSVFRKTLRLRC
Experimental: (§1) To determine the D2, D3 or D4 receptor selectivity, competition binding assays were performed using membranes from fibroblast cell lines transfected with D2444 (rat), D3 (human) or D4 (rat) receptors. All cell lines were maintained in Dulbecco's modified Eagle's media (DMEM) supplemented with 10 % fetal bovine serum at 37° C. with 5% CO2. Transfected cells were maintained in DMEM containing 300 μg/mL of the antibiotic G418 (Gibco).
Nuclei were removed by centrifugation for five minutes at 600 g at 4° C., membranes were pelleted for 25 minutes at 50,000 g. Membrane protein was resuspended in homogenization buffer (0.32M sucrose, 0.0025M Tris, pH 6.9 at 20° C.) and incubated at 37° C. for 15 minutes. Membrane protein was pelleted, resuspended in water and stored at -70° C.
The compositions were tested in varying concentrations between 1 nM and 100 μM. Non-specific binding was determined using 1 μM eticlopride.
After addition of all components, the samples were incubated for 15 minutes at 37° C., terminated with 50 mM Tris-HCl (pH 7.4 at 4° C.) and collected on glass-fiber filters on a Brandel cell harvester. […] Each composition was evaluated in duplicate experiments.

D2 receptor [4] = molecular target: T3, D2 receptor (Sus scrofa, UniProt F1SM69); assay: D2:D4 comparative binding assay, D2 (pig anterior pituitary)
T3 construct: pig anterior pituitary tissue; from tissue; host or cells: pig anterior pituitary
T3 sequence (F1SM69 1-443): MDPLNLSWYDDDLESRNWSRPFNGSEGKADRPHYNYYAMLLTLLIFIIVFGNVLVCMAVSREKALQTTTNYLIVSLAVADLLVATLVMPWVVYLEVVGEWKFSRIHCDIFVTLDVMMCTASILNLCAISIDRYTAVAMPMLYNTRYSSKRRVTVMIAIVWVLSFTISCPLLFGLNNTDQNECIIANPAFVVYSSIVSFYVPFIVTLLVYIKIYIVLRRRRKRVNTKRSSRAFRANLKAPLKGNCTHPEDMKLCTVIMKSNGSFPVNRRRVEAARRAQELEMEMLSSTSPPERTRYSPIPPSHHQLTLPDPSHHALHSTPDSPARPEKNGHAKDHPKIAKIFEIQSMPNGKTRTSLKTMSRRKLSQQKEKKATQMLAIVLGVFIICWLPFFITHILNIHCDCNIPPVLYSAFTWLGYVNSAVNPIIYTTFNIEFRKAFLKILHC
Experimental: (§2) To evaluate D2 versus D4 receptor selectivity, comparative binding assays were performed to compare the binding affinities of compositions of this invention for cloned D2 and D4 receptors.
(§3) The D2 assay was prepared from pig anterior pituitary tissue as described in Seeman et al., Molecular Pharmacology, 28:391 (1985). The D4 assay contained membranes prepared from COS-7 cells transfected with a 3.9 kb cDNA-gene fusion construct as described in H. H. M. Vantol, Nature, 350:610 (1991).
(§4) Binding assays were done using the methods described in by Seeman and Vantol. [^3 H]-spiperone (New England Nuclear, Boston, Mass.). The compositions were tested varying concentrations.
(§5) After addition of all components, the samples were incubated for 15 minutes at 37° C., terminated with 50 mM Tris-HCl (pH 7.4 at 20° C.) and collected on glass-fiber filters on a Brandel cell harvester. Radioactivity retained on the filters was counted on a Beckman LS 1701 scintillation counter and data were analyzed by non-linear least squares regression methods.

D4 receptor = molecular target: T4, D4 receptor (Homo sapiens, UniProt P21917, DEL265-296); assay: D2:D4 comparative binding assay, D4 (COS-7 cells)
T4 construct: expressed in transfected cells; host or cells: COS-7 cells
T4 sequence (P21917 other isoform, or with tags, fused parts or gaps DEL265-296): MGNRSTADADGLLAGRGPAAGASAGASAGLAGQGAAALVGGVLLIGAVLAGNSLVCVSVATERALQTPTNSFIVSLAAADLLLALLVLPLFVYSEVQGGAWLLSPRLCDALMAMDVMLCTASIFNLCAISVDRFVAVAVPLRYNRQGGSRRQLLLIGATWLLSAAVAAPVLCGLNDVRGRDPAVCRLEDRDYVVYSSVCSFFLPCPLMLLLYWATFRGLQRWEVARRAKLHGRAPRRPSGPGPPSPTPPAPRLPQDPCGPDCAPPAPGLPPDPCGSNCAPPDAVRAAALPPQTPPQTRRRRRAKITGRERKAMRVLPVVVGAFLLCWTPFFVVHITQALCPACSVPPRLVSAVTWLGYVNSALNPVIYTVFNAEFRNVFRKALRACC
Experimental: as §2, §3, §4, §5

D2 receptor [5] = molecular target: T5, D2 receptor (Rattus norvegicus, UniProt P61169); assay: D2 receptor agonist evaluation (membrane binding with and without Gpp(NH)p)
T5 construct: expressed in transfected cells
T5 sequence (P61169 whole entry): as the sequence (P61169 whole entry) above
Experimental: as §1
To determine whether or not compounds of this invention were D2 receptor agonists, a membrane binding assay, utilizing the D2 cell line described in Example 26, was performed in the presence and absence of the non-hydrolyzable guanine nucleotide (GTP analogue) Gpp(NH)p.

[6] = molecular target: alpha1-adrenergic receptor; details: for Ki: read-out: α1 receptor binding affinity Ki, Table III, rat forebrain membranes
Experimental: In these assays, the binding reaction was initiated by the addition of varying concentrations of the potential binding composition and a radioligand to an appropriate tissue. The assay was then incubated to allow binding. Binding was then terminated by dilution of the assay with a cold buffer, followed by rapid vacuum filtration onto Whatman GI/C filters that were presoaked in 0.1% polyethylene imine for at least 3 hours. Radioactivity trapped onto the filters was determined and compared to control values in order to ascertain any interactions of test compounds with the binding sites. Binding affinity analyses were performed by Novascreen, Division of the Adheron Corporation, Hanover, Md.
Incubation was conducted in 50 mM TRIS-HCl (pH 7.7) at 25° C. for 60 minutes. […] The final ligand concentration was 0.5 nm.

D1 dopamine receptor = molecular target: T6, D1 dopamine receptor (Rattus norvegicus, UniProt P18901); assay: Dopamine D1 binding assay ([3H]SCH 23390); details: Table III; rat striatal membranes; read-out: D1 receptor binding affinity Ki
T6 construct: rat striatal membranes; from tissue; host or cells: rat striatum membranes
T6 sequence (P18901 whole entry): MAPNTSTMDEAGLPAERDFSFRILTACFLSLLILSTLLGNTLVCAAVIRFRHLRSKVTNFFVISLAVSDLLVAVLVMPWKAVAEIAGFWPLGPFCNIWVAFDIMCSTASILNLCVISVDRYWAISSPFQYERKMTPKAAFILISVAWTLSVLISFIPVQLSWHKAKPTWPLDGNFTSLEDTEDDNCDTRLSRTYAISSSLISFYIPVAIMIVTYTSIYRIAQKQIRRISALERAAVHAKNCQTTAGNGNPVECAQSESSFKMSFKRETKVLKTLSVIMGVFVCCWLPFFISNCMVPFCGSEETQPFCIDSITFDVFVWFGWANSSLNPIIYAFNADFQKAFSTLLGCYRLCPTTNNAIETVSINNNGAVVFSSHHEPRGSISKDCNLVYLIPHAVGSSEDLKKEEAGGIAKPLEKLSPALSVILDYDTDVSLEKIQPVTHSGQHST
Experimental: The final radioligand concentration was 0.5 nM.

5HT1A serotonin receptor = molecular target: T7, 5HT1A serotonin receptor (Bos taurus, UniProt F6Q2H9); assay: Serotonin (5HT1A) binding assay ([3H]-8-OH-DPAT); set-up: species or system bovine
T7 construct: bovine hippocampus; from tissue; host or cells: bovine hippocampus
T7 sequence (F6Q2H9 1-422): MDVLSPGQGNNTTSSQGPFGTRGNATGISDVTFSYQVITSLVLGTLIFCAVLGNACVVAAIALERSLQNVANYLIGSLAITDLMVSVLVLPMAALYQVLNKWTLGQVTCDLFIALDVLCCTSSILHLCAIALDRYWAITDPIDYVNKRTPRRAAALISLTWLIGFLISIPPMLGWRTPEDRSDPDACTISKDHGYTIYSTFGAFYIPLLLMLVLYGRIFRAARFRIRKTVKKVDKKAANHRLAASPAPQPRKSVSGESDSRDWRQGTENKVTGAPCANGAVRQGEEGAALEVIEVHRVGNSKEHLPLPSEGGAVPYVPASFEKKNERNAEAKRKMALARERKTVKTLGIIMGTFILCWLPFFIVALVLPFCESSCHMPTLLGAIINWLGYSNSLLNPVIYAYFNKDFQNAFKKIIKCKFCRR

5HT2 serotonin receptor = molecular target: T8, 5HT2 serotonin receptor (Rattus norvegicus, UniProt P14842); assay: Serotonin (5HT2) binding assay ([3H]Ketanserin); details: 5-HT2 receptor binding affinity Ki
T8 construct: rat cortical membranes; from tissue; host or cells: rat cortex membranes
T8 sequence (P14842 whole entry): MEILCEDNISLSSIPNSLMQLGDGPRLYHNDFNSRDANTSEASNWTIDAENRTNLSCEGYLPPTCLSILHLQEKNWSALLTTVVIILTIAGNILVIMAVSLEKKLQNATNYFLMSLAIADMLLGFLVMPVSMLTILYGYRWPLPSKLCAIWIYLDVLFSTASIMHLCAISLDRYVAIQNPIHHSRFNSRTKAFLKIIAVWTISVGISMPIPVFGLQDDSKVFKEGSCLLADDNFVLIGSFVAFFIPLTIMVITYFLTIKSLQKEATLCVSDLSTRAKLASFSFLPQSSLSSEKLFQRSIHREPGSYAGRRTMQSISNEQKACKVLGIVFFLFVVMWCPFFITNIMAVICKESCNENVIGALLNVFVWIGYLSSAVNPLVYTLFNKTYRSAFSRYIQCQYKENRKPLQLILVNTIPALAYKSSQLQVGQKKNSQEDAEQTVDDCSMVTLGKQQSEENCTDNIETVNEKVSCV
Experimental: The final ligand concentration was 1.0 nM.

5HT1 serotonin receptor = assay: Serotonin (5HT1) binding assay
Experimental: In these assays, the binding reaction was initiated by the addition of varying concentrations of the potential binding composition and a radioligand to an appropriate tissue. The assay was then incubated to allow binding. Binding was then terminated by dilution of the assay with a cold buffer, followed by rapid vacuum filtration onto Whatman GI/C filters that were presoaked in 0.1% polyethylene imine for at least 3 hours. Radioactivity trapped onto the filters was determined and compared to control values in order to ascertain any interactions of test compounds with the binding sites.
Incubation was conducted in 50 mM TRIS-HCl (pH 7.4) at 45 minutes for 37° C. The radioligand used was [^3 H]Hydroxytryptamine binoxalate (15-30 Ci/mmol). The final ligand concentration was 3.0 nM.

Compound: Oc1ccc2c(c1O)CC[C@@H]1[C@H]2CCCN1CCc1ccccc1 (relative stereo) [cis-9]
- Ki (D2 dopamine receptor): 22 nM
- dopamine receptor binding affinity (D2 dopamine receptor): good dopamine receptor binding affinities
- selectivity for the D2 over the D1 dopamine receptor (D2 dopamine receptor): highly selective for the D2 dopamine receptor over the D1 dopamine receptor
- Ki [1]: 27 nM
- α2 receptor binding affinity [1]: high binding affinities for the α2 receptor
- deaths ([2]; IP, 10 mg/kg): Two of eight mice died
- decrease in locomotor activity, overall assessment ([2]; IP, in words): much weaker than expected when compared to its dopamine D2 receptor affinity
- suppression of locomotor activity ([2]; IP, in words): dose-related suppression of locomotor activity of 10 mg/kg
- ED50 ([2]; Mus musculus, read-out: ED50 (dose which produced 50% maximal depressant activity), IP, horizontal locomotor activity): 2.1 mg/kg
- stereotypy score ([3]; 0.0001 mg/kg): 1.0 ± 0.4
- stereotypy score ([3]; 0.001 mg/kg): 0.7 ± 0.3
- stereotypy score ([3]; 0.003 mg/kg): 0.5 ± 0.2
- stereotypy score ([3]; 0.01 mg/kg): 0.0
- stereotypy score ([3]; 0.03 mg/kg): 0.0
- stereotypy score ([3]; 0.1 mg/kg): 0.0
- stereotypy score ([3]; 0.3 mg/kg): 0.0
- stereotypy score ([3]; 1.0 mg/kg): 0.0
- stereotypy score ([3]; 3.0 mg/kg): 0.0
- stereotypy score ([3]; 10.0 mg/kg): 0.0
- induction of stereotypy, dopamine agonism ([3]; in words): did not induce stereotypy and therefore is not a dopamine agonist
- selectivity for the D4 receptor (D4 (rat) receptor): highly selective for the D4 receptor over the D2 or D3 receptors
- Ki (D2 receptor [4]): 122 nM
- Ki (D4 receptor): 8.9 nM
- selectivity for the D4 receptor (D4 receptor; in words, Example 27): selective for the D4 receptor over the D2 or D3 receptors
- Ratio of +:- Gpp(NH)p (D2 receptor [5]; Table XV): 1.84
- Ki (D2 receptor [5]; Table XV, with Gpp(NH)p, read-out: D2 receptor binding Ki with Gpp(NH)p): 872 ± 610 nM
- Ki (D2 receptor [5]; Table XV, without Gpp(NH)p, read-out: D2 receptor binding Ki without Gpp(NH)p): 473 ± 313 nM
- D2 agonist/antagonist assessment (D2 receptor [5]; in words): appear to be an antagonist
- effect of GTP on D2 receptor binding (D2 receptor [5]; in words): the addition of GTP did not significantly affect receptor binding affinity
- Ki [6]: 190 nM

Compound: Oc1cccc2c1CC[C@@H]1[C@@H]2CCCN1CCc1ccccc1 (single isomer, unassigned) [trans-(-)-25, trans-(-)-7-hydroxy-4-phenethyl-1,2,3,4a,5,6,10b-octahydrobenzo[f]quinoline]
- Ki (D1 dopamine receptor): 3600 nM
- Ki (D2 dopamine receptor): 0.9 nM
- dopamine receptor binding affinity (D2 dopamine receptor): good dopamine receptor binding affinities
- selectivity for the D2 over the D1 dopamine receptor (D2 dopamine receptor): highly selective for the D2 dopamine receptor over the D1 dopamine receptor
- Ki [1]: 2.1 nM
- α2 receptor binding affinity [1]: high binding affinities for the α2 receptor
- Ki (5HT1A serotonin receptor; 5-HT1A receptor binding affinity Ki, Table III, bovine hippocampus): 11 nM
- 5HT1A serotonin receptor binding affinity (5HT1A serotonin receptor; in words): high binding affinities for the 5HT1A serotonin receptor
- Ki (5HT2 serotonin receptor): 410 nM
- α1 receptor binding affinity ([6]; in words): high binding affinities for the α1 receptor
- Ki [6]: 4.8 nM
- 5HT1 serotonin receptor binding affinity (5HT1 serotonin receptor; in words): high binding affinity for the 5HT1 serotonin receptor
- Ki (5HT1 serotonin receptor; read-out: 5-HT1 receptor binding affinity Ki, Table III, rat cortical membranes): 240 nM
